Earlier results, collected in PMC10799843 (Molecular pharmaceutics, 2023).

Tested on: denatured collagen
Conditions: control scrambled peptide

Question: Which Collagen binding affinity does the source give for “Cy5.5-KGGG-OfGGOfGfGfOfOGOfGOOfGGOOffG [^SCHP]” here?
Answer: lacking in collagen binding affinity
